Paper PMC6272662, “Trypanocidal Activity of Long Chain Diamines and Aminoalcohols” (Molecules, 2015)
Like-named read-outs stand apart in the source and are kept apart here.

Key:
[1] = tested on: Trypanosoma cruzi epimastigotes strain JEM (MHOM/CO/05/JEM); assay: Epimastigote susceptibility assay, JEM strain (Trypan Blue and XTT); format: cell-based; conditions: for IC50 / JEM Strain PNFX (potency relative to NFX = IC50-NFX/IC50-compound; also called NI): epimastigotes, JEM strain; for IC50: 72 h at 28 °C, 0.1-70.0 µM, mean ± SEM; for JEM Strain SI (Selectivity Index: LC50-macrophages/IC50-epimastigotes): JEM strain epimastigotes vs J774.2 macrophages
Experimental: (§1) For in vitro studies, the strains MHOM/CO/04/MG (MG), MHOM/CO/05/JEM (JEM) and CL Brener strain clone B5 (CL-B5) were used. The MG and JEM strains correspond to Group I and Haplotype Ia isolates from two Colombian patients in the acute phase, and CL-B5 is a strain stably transfected with Escherichia coli β-galactosidase gene (lacZ). Epimastigotes were grown in plastic culture flasks at 28 °C, in axenic liver-infusion tryptose (LIT) growth medium, supplemented with 10% heat inactivated (30 min at 56 °C) foetal calf serum (FCS; Sigma), […] hemin (Sigma), and 10 µg/mL gentamycin (Sigma) and harvested in the exponential phase for conducting the experiments. Cultures were continuously maintained in logarithmic growth by weekly passages.
(§2) Three different strains of T. cruzi were used for the primary screening on epimastigote forms. For strains MG and JEM, the screening assay was performed with approximately 1 × 10^5 epimastigotes in logaritmic growth phase in 200 μL of supplemented LIT medium per well in 96-well flat bottoned plates (Costar, Corning, Cornig, NY, USA). […] The plates were incubated for 72 h at 28 °C and all experimental conditions were evaluated in triplicate in three independent experiments. The epimastigote growth inhibition was microscopically determined by the Trypan Blue dye exclusion assay and XTT (2,3-bis-(2-methoxy-4-nitro-5-sulfophenyl)-5-[(phenylamino)carbonyl]-2H-tetrazolium hydroxide). Regarding the first method, an aliquot from every culture was suspended in 0.4% trypan blue solution for 5 min and cell viability was determined under microscope by counting live parasites in each condition in a Neubauer chamber. Anti-epimastigote activity percentage was calculated as (Parasite counts in control wells-Parasite counts in experimental wells) × 100/Parasite counts in control wells. Trypanocidal activity over both strains was also measured adding 50 μL of XTT solution per well to obtain a final concentration of 0.3 mg/mL. The plate was re-incubated 24 h in the dark at 37 °C and orange formazan solution formed, was spectrophotometrically quantified at 450 nm with a 630 nm reference filter, using an Ear400FT ELISA reader.
(§3) Furthermore the Selectivity Index (SI = mammalian cell LC50/epimastigote IC50) for each compound was calculated to compare the antiprotozoal activity with its respective mammalian cell cytotoxicity.

[2] = tested on: Trypanosoma cruzi epimastigotes strain MG (MHOM/CO/04/MG); assay: Epimastigote susceptibility assay, MG strain (Trypan Blue and XTT); format: cell-based; conditions: for IC50 / MG Strain PNFX (potency relative to NFX = IC50-NFX/IC50-compound; also called NI): MG strain; for IC50: 72 h at 28 °C, 0.1-70.0 µM, mean ± SEM; for MG Strain SI (Selectivity Index: LC50-macrophages/IC50-epimastigotes): MG strain epimastigotes vs J774.2 macrophages
Experimental: as §1, §2, §3

in vitro = conditions: mouse
Experimental: (§4) The mouse cell lines J774.2 macrophages and NCTC clone 929 fibroblasts were used and cultured in plastic culture flasks. J774.2 and NCTC-929 cells were grown using DMEM and BME without phenol-red, respectively. Both media were supplemented with 10% heat inactivated fetal calf serum, 2 mM glutamine, 100 U/mL penicillin and 100 μg/mL streptomycin. Cell cultures were maintained at 37 °C in a humidified atmosphere containing 5% CO2 and subpassaged once a week. Cells in the pre-confluence phase were harvested with an EDTA-trypsin solution for the experiments.
(§5) Unspecific cytotoxicity was evaluated over phagocytic macrophages J774.2 cell line. To study cytotoxicity on J774.2 cells, 200 μL of a suspension of 2 × 10^5 macrophages/mL were added to 96 well flat-bottom microplates (Sigma). Cells were allowed to attach for 24 h at 37 °C and then exposed to the compounds for 72 h at the same concentrations as used for drug screening. […] Each concentration was assayed by triplicate, in independent experiments. Cytotoxicity was assessed by the Trypan Blue and XTT techniques and LC50 was calculated as described above.

Chagas disease = tested on: Chagas disease; design: method as in PMID 22614520, PMID 22760123, PMID 22686518, PMID 19967227; conditions: ref [6],[7],[8],[9], cited from earlier work
J774.2 macrophages = assay: in vitro; conditions: macrophages LC50 relative to NFX
Experimental: as §4, §5

[3] = Trypanosoma cruzi, 72 h, epimastigotes

Row | SMILES | IC50 ([1]; Trypanosoma cruzi, 72 h) [µM] | IC50 [2, 3] [µM] | JEM Strain PNFX (potency relative to NFX = IC50-NFX/IC50-compound; also called NI) [1] | MG Strain PNFX (potency relative to NFX = IC50-NFX/IC50-compound; also called NI) ([2]; epimastigotes) | IC50 [1] [µM] | IC50 ([2]; epimastigotes) [µM] | CC50 at 72 h (in vitro) [µM] | JEM Strain SI (Selectivity Index: LC50-macrophages/IC50-epimastigotes) [1] | MG Strain SI (Selectivity Index: LC50-macrophages/IC50-epimastigotes) [2] | times greater activity on the MG strain than the JEM strain ([2]; epimastigotes, MG vs JEM IC50) | average cure rate (Chagas disease; acute cases of Chagas disease) [%] | mild to moderate dermatitis (Chagas disease; adults) | average cure rate (Chagas disease; chronic cases of Chagas disease) | times less toxic than NFX (J774.2 macrophages)
1 | CCCCCCCCCCCCCCC(CO)N(CC)CC (stereo not shown) [Compound 10] | > 70 | > 70 | – | – | – | – | 5.6 ± 0.27 | – | – | – | – | – | – | –
2 | CCCCCCCCCCCCCCC(N)COCc1ccccc1 (stereo not shown) [Compound 12] | 28.8 ± 1.2 | 34.4 ± 1.8 | 0.5 | 0.6 | – | – | 27.7 ± 0.1 | 1.0 | 0.8 | – | – | – | – | –
3 | CCCCCCCCCCC(CO)NCCCCCC (stereo not shown) [Compound 4] | 37.2 ± 1.25 | 21.1 ± 1.25 | 0.4 | 1.0 | – | – | 36.1 ± 2.3 | 1.0 | 1.7 | – | – | – | – | –
4 | CCCCCCCCCCCCCCC(CO)NCCCCCC (stereo not shown) [Compound 7] | > 70 | 6 | – | 3.5 | > 70 | 6.1 ± 0.15 | 8.2 ± 1.55 | – | 1.3 | 11 | – | – | – | –
5 | CCCCCCCCCCCCCCCCC(N)CO (stereo not shown) [Compound 3] | 9.9 ± 1.65 | 46.2 ± 2.5 | 1.5 | 0.5 | – | – | 3 ± 0.24 | 0.3 | 0.1 | – | – | – | – | –
6 | CCCCCCCCCCCCCCC(COCc1ccccc1)NCCCC (stereo not shown) [Compound 13] | > 70 | > 70 | – | – | – | – | – | – | – | – | – | – | – | –
7 | O=C(Cn1ccnc1[N+](=O)[O-])NCc1ccccc1 [Bz, benznidazole] | – | – | – | – | – | – | – | – | – | – | ~80 | up to 30% | less than 20% | –
8 | CCCCCCCCCCCCCCCCC(CO)N(CCCC)CCCC (stereo not shown) [Compound 11] | 50.3 ± 0.1 | > 70 | 0.3 | – | – | – | – | – | – | – | – | – | – | –
9 | CCCCCCCCCCCCCCCCC(CN)NC(=O)OC(C)(C)C (stereo not shown) [Compound 16] | 6.7 ± 2.1 | 13.9 ± 1 | 2.2 | 1.5 | – | – | 24.1 ± 0.2 | 3.6 | 1.7 | – | – | – | – | –
10 | CCCCCCCCCCC(CO)N(CCCC)CCCC (stereo not shown) [Compound 9] | 50.5 ± 0.7 | 39.2 ± 0.2 | 0.3 | 0.5 | – | – | 63.7 ± 0.73 | 1.3 | 1.6 | – | – | – | – | 1.3
11 | CCCCCCCCCCC(N)CO (stereo not shown) [Compound 1] | 33 ± 1.7 | 14.5 ± 3.15 | 0.4 | 1.5 | – | – | 14 ± 0.9 | 0.4 | 1.0 | – | – | – | – | –
12 | CCCCCCCCCCCCCCCCC(CO)NCCCCCC (stereo not shown) [Compound 8] | > 70 | > 70 | – | – | – | – | 26 ± 0.2 | – | – | – | – | – | – | –

Second part, led by results:

Row | IC50 ([1]; Trypanosoma cruzi, 72 h) [µM] | IC50 [2, 3] [µM] | JEM Strain PNFX (potency relative to NFX = IC50-NFX/IC50-compound; also called NI) [1] | MG Strain PNFX (potency relative to NFX = IC50-NFX/IC50-compound; also called NI) ([2]; epimastigotes) | IC50 [1] [µM] | IC50 ([2]; epimastigotes) [µM] | SMILES | CC50 at 72 h (in vitro) [µM] | JEM Strain SI (Selectivity Index: LC50-macrophages/IC50-epimastigotes) [1] | MG Strain SI (Selectivity Index: LC50-macrophages/IC50-epimastigotes) [2] | times greater activity on the MG strain than the JEM strain ([2]; epimastigotes, MG vs JEM IC50) | average cure rate (Chagas disease; acute cases of Chagas disease) [%] | mild to moderate dermatitis (Chagas disease; adults) | average cure rate (Chagas disease; chronic cases of Chagas disease) | times less toxic than NFX (J774.2 macrophages)
13 | 30.6 ± 0.65 | 26.7 ± 0.25 | 0.5 | 0.8 | – | – | CCCCCCCCCCCCCCC(CNCCCCCC)NC(=O)OC(C)(C)C (stereo not shown) [Compound 17] | 4.2 ± 0.05 | 0.1 | 0.2 | – | – | – | – | –
14 | > 70 | > 70 | – | – | > 70 | > 70 | CCCCCCCCCCCCCCC(CN(CCCCCC)CCCCCC)NC(=O)OC(C)(C)C (stereo not shown) [Compound 18] | – | – | – | – | – | – | – | –
15 | > 70 | 42.2 ± 1.4 | – | 0.5 | – | – | CCCCCCCCCCCCCCCCC(N)CN(CC)CC (stereo not shown) [Compound 21] | 9.3 ± 0.5 | – | 0.2 | – | – | – | – | –
16 | > 70 | 42.2 | 0.3 | 0.6 | 48.8 ± 1.05 | 32.9 ± 1.25 | CCCCCCCCCCCCCCC(N)CNCCCCCC (stereo not shown) [Compound 20] | 5 ± 0.1 | 0.1 | 0.2 | – | – | – | – | –
17 | 26.6 ± 0.7 | 19.2 ± 2.9 | 0.6 | 1.1 | – | – | CCCCCCCCCCCCCCC(N)CN (stereo not shown) [Compound 19] | 78.1 ± 0.85 | 2.9 | 4.1 | – | – | – | – | –
